This is an account of results in ChEMBL document CHEMBL1201862, “PubChem BioAssay data set” (2004).

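Interpolation was linear, between the two tested concentrations surrounding the appropriate level; five concentrations were tested over 48 hours in 96-well plates. GI50 is the concentration that inhibits growth by half.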 The source made the active and inactive calls. Cut-off read from the data, not from the text of the source: active = GI50 up to about 1.1 µM and inactive = higher.

Some test systems named below: IGROV-1; RPMI-8226; SK-MEL-5; HOP-62; NCI-H23; SNB-75; HOP-92; TK-10; K562; HL-60; LOX IMVI; SF-539; KM12; SK-MEL-28; SK-MEL-2; RXF 393; MDA-MB-435; MCF7.
Common to all, as to assay: NCI anticancer screen, dose series, 48 h

Consider `COc1cc([C@@H]2c3cc4c(cc3[C@@H](NC(=O)c3cccc([N+](=O)[O-])c3)C3COC(=O)[C@@H]32)OCO4)cc(OC)c1O` (stereo not given in full), for which the GI50 was 3.85 µM (inactive) with IGROV-1; 0.452 µM (active) in the experiment on RPMI-8226; 0.452 µM (active) in the experiment on SK-MEL-5; 0.0398 µM (active) in the experiment on HOP-62; 0.189 µM (active) in the experiment with NCI-H23; 1.31 µM (inactive) with SNB-75. Further, the GI50 was 0.63 µM (active) with HOP-92; 2.25 µM (inactive) in the experiment with TK-10; 2.2 µM (inactive) in the experiment on K562; 0.274 µM (active) with HL-60; 0.295 µM (active) with LOX IMVI; 0.294 µM (active) in the experiment on SF-539. For the same molecule, the GI50 with KM12 is 1.47 µM (inactive); in the experiment with SK-MEL-28, 3.27 µM (inactive); with SK-MEL-2 it was 2.77 µM (inactive); with RXF 393, 2.34 µM (inactive).

`Clc1ccc(OCCSCCCCCCCCCCSCCOc2ccc(Cl)cc2)cc1`: the GI50 in the experiment on IGROV-1, with RPMI-8226, with SK-MEL-5, in the experiment on HOP-62, with NCI-H23 and in the experiment with SNB-75 was > 100 µM (inactive) throughout. For the same molecule, the GI50 in the experiment with HOP-92, with TK-10, in the experiment on K562, in the experiment with HL-60, in the experiment on LOX IMVI and in the experiment on SF-539 was > 100 µM (inactive) in each case. For the same molecule, the GI50 with KM12, in the experiment with SK-MEL-28, in the experiment on SK-MEL-2 and in the experiment with RXF 393 was > 100 µM (inactive) throughout.

For `COC(=O)C12C3C4C1C1C2C3C41C(=O)OC(C)(C)C` (stereo not given), the GI50 in the experiment on IGROV-1 was > 100 µM (inactive); in the experiment with RPMI-8226, > 49.2 µM (inactive); in the experiment on SK-MEL-5, > 100 µM (inactive); in the experiment with HOP-62, > 100 µM (inactive); in the experiment on NCI-H23 it was > 100 µM (inactive); in the experiment with SNB-75 it was > 100 µM (inactive). Moreover, the GI50 was > 100 µM (inactive) with HOP-92; > 100 µM (inactive) with TK-10; > 70.1 µM (inactive) in the experiment with K562; > 53.8 µM (inactive) in the experiment with HL-60; > 42.9 µM (inactive) in the experiment with LOX IMVI; > 100 µM (inactive) in the experiment with SF-539. In addition, the GI50 in the experiment on KM12, in the experiment on SK-MEL-28, with SK-MEL-2 and in the experiment with RXF 393 was > 100 µM (inactive) throughout.

`CCOC(=O)N1CCC2C(=C(C)C(C)C3=C2C(=O)c2ccccc2C3=O)C1` (stereo not given): the GI50 was 2.25 µM (inactive) in the experiment on MDA-MB-435; > 10 µM (inactive) with IGROV-1; 3.79 µM (inactive) in the experiment on RPMI-8226; 4.21 µM (inactive) in the experiment on MCF7; 1.77 µM (inactive) in the experiment on SK-MEL-5; 4.1 µM (inactive) in the experiment with HOP-62. Besides, the GI50 is 2.76 µM (inactive) in the experiment on NCI-H23; 3.75 µM (inactive) in the experiment with SNB-75; 5.41 µM (inactive) with HOP-92; > 10 µM (inactive) with TK-10; 3.08 µM (inactive) in the experiment on K562; 2.07 µM (inactive) in the experiment on HL-60. The GI50 in the experiment with LOX IMVI was 3.61 µM (inactive); in the experiment on KM12 it was 5.81 µM (inactive); with SK-MEL-28, 5.05 µM (inactive); in the experiment on RXF 393 it was > 10 µM (inactive).

Regarding `O=S(=O)(O)C1=C2Sc3ccccc3N=C2c2ccccc2C1`, the GI50 in the experiment with IGROV-1 is 14.3 µM (inactive); in the experiment on RPMI-8226, 7.48 µM (inactive); in the experiment on SK-MEL-5, 13.2 µM (inactive); with HOP-62, 20.1 µM (inactive); in the experiment on NCI-H23 it was 16.4 µM (inactive); in the experiment with SNB-75, 18.5 µM (inactive). Besides, the GI50 in the experiment with HOP-92 is 10.3 µM (inactive); in the experiment with TK-10, 18.4 µM (inactive); in the experiment with K562 it was 10.5 µM (inactive); in the experiment on HL-60 it was 3.76 µM (inactive); in the experiment with LOX IMVI, 12.4 µM (inactive); with SF-539, 11.9 µM (inactive). For the same molecule, the GI50 in the experiment with KM12 is 15.8 µM (inactive); in the experiment with SK-MEL-28 it was 17.3 µM (inactive); in the experiment on SK-MEL-2, 14.6 µM (inactive); with RXF 393, 19.5 µM (inactive).
